Data: patent publication US8715731B2, “Process of reducing the bitter taste of water soluble actives by co-grinding the active with β cyclodextrin” (ISP Investments Inc., priority 2006, dated 2014)
Converted amounts (≈) assume the structure as drawn.

Test: physchem
Details: water
Method: The degree of formation of an inclusion complex between the drug and β-cyclodextrin was determined quantitatively by Differential Scanning Calorimetry (DSC).

solubility: 1000 µg/mL (≈ 2960 µM)
Structure (SMILES): NC(N)=Nc1nc(CSCCC(N)=NS(N)(=O)=O)cs1 [famotidine]
